Results reported in patent US20220267260A1, “COMPOUNDS CONTAINING A SULFONIC GROUP AS KAT INHIBITORS” (Epizyme, Inc., priority 2016, published 2022).
pIC50: −log10 of the molar value. Where a name gives a salt, the structure may show the parent alone.

How the values were obtained:
[1] = target: T1, KAT6A (Homo sapiens, UniProt Q92794); test: KAT6A enzyme inhibition assay (SAMDI mass spectrometry); format: biochemical; conditions: His-TEV-KAT6A 501-784 enzyme construct
T1 construct: His-TEV tag (N, cleaved yes); made in house
T1 sequence (Q92794 with tags, fused parts or gaps): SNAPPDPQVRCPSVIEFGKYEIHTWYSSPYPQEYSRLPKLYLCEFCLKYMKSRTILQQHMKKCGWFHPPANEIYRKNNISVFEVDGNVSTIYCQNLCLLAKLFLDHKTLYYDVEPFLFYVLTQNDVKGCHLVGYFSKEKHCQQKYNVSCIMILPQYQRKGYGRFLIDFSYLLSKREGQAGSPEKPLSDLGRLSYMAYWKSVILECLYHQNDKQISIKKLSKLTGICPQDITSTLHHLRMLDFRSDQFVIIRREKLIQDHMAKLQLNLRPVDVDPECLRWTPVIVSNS

[2] = target: T2, KAT5 (Homo sapiens, UniProt Q92993); test: KAT5 enzyme inhibition assay (SAMDI mass spectrometry); format: biochemical; conditions: His-TEV-FL KAT5-Flag enzyme construct
T2 construct: His-TEV tag (N, cleaved yes); made in house
T2 sequence (Q92993 with tags, fused parts or gaps): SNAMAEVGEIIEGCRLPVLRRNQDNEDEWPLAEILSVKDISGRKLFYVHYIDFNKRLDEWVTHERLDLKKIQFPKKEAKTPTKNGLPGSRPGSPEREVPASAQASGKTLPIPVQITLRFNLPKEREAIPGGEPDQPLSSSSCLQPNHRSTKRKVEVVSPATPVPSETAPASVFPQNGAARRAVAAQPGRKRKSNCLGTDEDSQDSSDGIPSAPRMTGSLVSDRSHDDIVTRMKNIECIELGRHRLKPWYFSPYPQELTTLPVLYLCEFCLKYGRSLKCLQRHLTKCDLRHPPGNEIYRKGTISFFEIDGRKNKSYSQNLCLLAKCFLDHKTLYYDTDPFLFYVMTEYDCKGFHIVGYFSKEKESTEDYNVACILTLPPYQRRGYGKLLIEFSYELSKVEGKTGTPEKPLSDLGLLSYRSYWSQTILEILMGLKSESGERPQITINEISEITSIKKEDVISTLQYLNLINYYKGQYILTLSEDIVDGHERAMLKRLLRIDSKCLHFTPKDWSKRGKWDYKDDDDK

| pIC50 [1] | pIC50 [2] | SMILES |
| --- | --- | --- |
| 4.30 to 5.00 | ≥ 5.00 | COc1cccc(-c2cc(C)c(F)c(C(=O)NNS(=O)(=O)CC3CCCCC3)c2)c1 [Compound I-298] |
| < 4.00 | < 4.00 | Cc1nn(CC(=O)NCCN(C)C)c(C(=O)NNS(=O)(=O)C2CCCCC2)c1F [Compound I-502] |
| < 4.00 | ≥ 5.00 | O=C(NNS(=O)(=O)CC1CCCCC1)c1cc(-c2cn3ccccc3n2)cc(Cl)c1F [Compound I-510] |
| 4.30 to 5.00 | 4.30 to 5.00 | COc1ccccc1CN1CCC(S(=O)(=O)NNC(=O)c2cc(-c3ccccc3)cc(C)c2F)C1 (stereo not shown) [Compound I-25] |
| ≥ 5.00 | ≥ 5.00 | Cc1cc(-c2cccc(Cl)c2)cc(C(=O)NNS(=O)(=O)c2ccccc2)c1F [Compound I-340] |
| < 4.00 | < 4.00 | O=C(NNS(=O)(=O)C1CCOCC1)c1cc(CN2CCOCC2)cc(Cl)c1F [Compound I-448] |
| 4.00 to 4.30 | 4.30 to 5.00 | Cc1cccc(-c2cc(C)c(F)c(C(=O)NNS(=O)(=O)C3CCCCC3)c2)c1 [Compound I-301] |
| ≥ 5.00 | 4.30 to 5.00 | CNC(=O)c1cccc(-c2cc(C)c(F)c(C(=O)NNS(=O)(=O)c3ccccc3)c2)c1 [Compound I-415] |
| < 4.00 | < 4.00 | Cc1ccc(-c2ccccc2)c(F)c1C(=O)NNS(=O)(=O)c1ccccc1 [Compound I-139] |
| < 4.00 | < 4.00 | O=C(NNS(=O)(=O)C1CCCCC1)c1nc(-c2ccccc2)ccc1F [Compound I-332] |
| 4.30 to 5.00 | < 4.00 | O=C(NNS(=O)(=O)c1ccc(Cl)cc1)c1ccccc1F [Compound I-143] |
| 4.00 to 4.30 | < 4.00 | Cc1cc(-c2cccc(F)c2F)cc(C(=O)NNS(=O)(=O)CC2CCCCC2)c1F [Compound I-380] |
| < 4.00 | < 4.00 | O=C(NS(=O)(=O)c1ccccc1)c1c[nH]c2ccccc12 [Compound I-185] |
| 4.30 to 5.00 | 4.30 to 5.00 | COCCC(=O)N1CCCC(S(=O)(=O)NNC(=O)c2cc(-c3ccccc3)cc(C)c2F)C1 (stereo not shown) [Compound I-112] |
| ≥ 5.00 | ≥ 5.00 | Cc1cc(-c2ccccc2)cc(C(=O)NNS(=O)(=O)Cc2ccccc2Cl)c1F [Compound I-8] |
| 4.00 to 4.30 | 4.30 to 5.00 | COc1cc(Cl)c(F)c(C(=O)NNS(=O)(=O)CC2CCOCC2)c1 [Compound I-431] |
| ≥ 5.00 | ≥ 5.00 | Cc1cc(-c2ccccc2)cc(C(=O)NNS(=O)(=O)c2ccc(C(N)=O)cc2)c1F [Compound I-239] |
| ≥ 5.00 | ≥ 5.00 | Cc1cccc(-c2cc(C)c(F)c(C(=O)NNS(=O)(=O)c3ccccc3)c2)c1 [Compound I-326] |
| < 4.00 | < 4.00 | Cc1cc(-c2ccccc2)cc(C(=O)NNS(=O)(=O)C2CNC2)c1F [Compound I-120, N′-(4-Fluoro-5-methyl-[1,1′-biphenyl]-3-carbonyl)azetidine-3-sulfonohydrazide hydrochloride] |
| ≥ 5.00 | ≥ 5.00 | COCC(=O)N1CCC(CS(=O)(=O)NNC(=O)c2cc(-c3ccccc3)cc(C)c2F)CC1 [Compound I-344] |

| pIC50 [1] | pIC50 [2] | SMILES |
| --- | --- | --- |
| 4.30 to 5.00 | < 4.00 | Cc1cc(-c2ccccc2)cc(C(=O)NNS(=O)(=O)C2CCCN(C)C2)c1F (stereo not shown) [Compound I-98] |
| ≥ 5.00 | 4.30 to 5.00 | COCC(=O)N1CC(CS(=O)(=O)NNC(=O)c2cc(-c3ccccc3)cc(C)c2F)C1 [Compound I-310] |
| < 4.00 | < 4.00 | Cc1cc(C2CCN(C)CC2)cc(C(=O)NNS(=O)(=O)C2CCCCC2)c1F [Compound I-338] |
| < 4.00 | < 4.00 | Cc1c(-c2ccccc2)ccc(F)c1C(=O)NCC(=O)NC(Cc1ccccc1)C(C)C (stereo not shown) [Compound I-387] |
| < 4.00 | < 4.00 | Cc1cc(-c2ccccc2)cc(C(=O)NCc2cc[nH]n2)c1F [Compound I-173] |
| 4.30 to 5.00 | 4.00 to 4.30 | O=C(NNS(=O)(=O)c1ccccc1)c1cc(-c2ccccc2)ccc1F [Compound I-253] |
| 4.30 to 5.00 | 4.30 to 5.00 | Cc1nc(-c2ccccc2)cc(C(=O)NNS(=O)(=O)C2CCCCC2)c1F [Compound I-288] |
| 4.00 to 4.30 | < 4.00 | Cc1cccc(-c2ccc(F)c(C(=O)NNS(=O)(=O)c3ccccc3)c2C)c1 [Compound I-273] |
| 4.30 to 5.00 | 4.30 to 5.00 | COCCN1CCC(S(=O)(=O)NNC(=O)c2cc(-c3ccccc3)cc(C)c2F)CC1 [Compound I-93] |
| < 4.00 | < 4.00 | O=C(NNS(=O)(=O)c1cccc(Cl)c1)c1c(F)ccc(-c2cnc[nH]2)c1F [Compound I-499] |
| < 4.00 | < 4.00 | O=C(NN[S+]([O-])c1ccccc1)c1ccccc1F (stereo not shown) [Compound I-133] |
| 4.00 to 4.30 | 4.00 to 4.30 | O=C(NNS(=O)(=O)C1CCCCC1)c1c(F)ccc(-c2ccccc2)c1F [Compound I-364] |
| < 4.00 | < 4.00 | C=CCn1nc(NNS(=O)(=O)c2ccccc2)c2ccccc21 [Compound I-290] |
| 4.00 to 4.30 | 4.00 to 4.30 | Cc1cc(-c2ccccc2Cl)cc(C(=O)NNS(=O)(=O)C2CCCCC2)c1F [Compound I-318] |
| 4.30 to 5.00 | 4.30 to 5.00 | COc1cc(-c2ccccc2)cc(C(=O)NNS(=O)(=O)C2CCCCC2)c1F [Compound I-315] |
| 4.30 to 5.00 | 4.30 to 5.00 | COc1cc(F)cc(-c2cc(Cl)c(F)c(C(=O)NNS(=O)(=O)C3CCCCC3)c2)c1 [Compound I-486] |
| ≥ 5.00 | ≥ 5.00 | Cc1cc(-c2ccccc2)cc(C(=O)NNS(=O)(=O)C2CCCCC2)c1F [Compound I-18] |
| 4.30 to 5.00 | 4.30 to 5.00 | Cc1cc(-c2cccc(F)c2)cc(C(=O)NNS(=O)(=O)C2CCOC2)c1F (stereo not shown) [Compound I-438] |
| ≥ 5.00 | ≥ 5.00 | COCc1cc(Cl)c(F)c(C(=O)NNS(=O)(=O)CC2CCOCC2)c1 [Compound I-452] |
| < 4.00 | < 4.00 | Cn1cnc2c(C(=O)NNS(=O)(=O)C3CCCCC3)c(F)c(-c3ccccc3)cc21 [Compound I-468] |

| pIC50 [1] | pIC50 [2] | SMILES |
| --- | --- | --- |
| < 4.00 | 4.00 to 4.30 | Cc1cc(-c2cccc(OCCN(C)C)c2)cc(C(=O)NNS(=O)(=O)CC2CCCCC2)c1F [Compound I-365] |
| 4.30 to 5.00 | 4.00 to 4.30 | Cc1c(-c2ccccc2)ccc(F)c1C(=O)NNS(=O)(=O)c1cccc(Cl)c1 [Compound I-128] |
| 4.30 to 5.00 | 4.00 to 4.30 | Cc1cc(-c2ccccc2)cc(C(=O)NNS(C)(=O)=O)c1F [Compound I-1] |
| 4.30 to 5.00 | ≥ 5.00 | CCc1cc(Cl)c(F)c(C(=O)NNS(=O)(=O)CC2CCCCC2)c1 [Compound I-421] |
| 4.30 to 5.00 | 4.30 to 5.00 | Cc1cc(-c2cccc(Cl)c2F)cc(C(=O)NNS(=O)(=O)C2CCCCC2)c1F [Compound I-376] |
| 4.00 to 4.30 | < 4.00 | O=C(NNS(=O)(=O)c1ccccc1)c1cc(-c2ccccc2)cc2[nH]ccc12 [Compound I-16] |
| < 4.00 | < 4.00 | O=C(NNS(=O)(=O)c1ccccc1)c1c(F)ccc2ccccc12 [Compound I-236] |
| ≥ 5.00 | ≥ 5.00 | Cc1cc(-c2ccccc2)cc(C(=O)NNS(=O)(=O)C(C)C2CCCCC2)c1F (stereo not shown) [Compound I-385] |
| 4.30 to 5.00 | 4.30 to 5.00 | O=C(NNS(=O)(=O)CC1CCCCC1)c1cc(-c2c[nH]cn2)ccc1F [Compound I-495] |
| 4.30 to 5.00 | ≥ 5.00 | COCCN1CCCC(CS(=O)(=O)NNC(=O)c2cc(-c3cccc(F)c3)cc(C)c2F)C1 (stereo not shown) [Compound I-408] |
| < 4.00 | < 4.00 | CNC(=O)Cn1nc(C(=O)NNS(=O)(=O)C2CCCCC2)c(F)c1C [Compound I-489] |
| 4.30 to 5.00 | 4.30 to 5.00 | Cc1cc(-c2ccccc2)cc(C(=O)NNS(=O)(=O)CC2CCCN(C(=O)CCN(C)C)C2)c1F (stereo not shown) [Compound I-409] |
| < 4.00 | < 4.00 | O=C(NNS(=O)(=O)c1ccccc1Cl)c1ccccc1F [Compound I-130] |
| 4.00 to 4.30 | < 4.00 | O=C(NS(=O)(=O)Nc1ccccc1)c1c(F)ccc(-c2ccccc2)c1F [Compound I-212] |
| < 4.00 | 4.00 to 4.30 | O=C(NNS(=O)(=O)C1CCN(C(=O)C2CCC2)CC1)c1cc(Cl)cc(Cl)c1F [Compound I-436] |
| 4.30 to 5.00 | 4.00 to 4.30 | Cc1cc(-c2ccccc2)cc(C(=O)Nc2n[nH]c3ncccc23)c1F [Compound I-282] |
| < 4.00 | 4.30 to 5.00 | Cc1cc(-c2ccccc2)cc(C(=O)NNS(=O)(=O)CC2CCCNC2)c1F (stereo not shown) [Compound I-351] |
| < 4.00 | < 4.00 | COc1ccc(C(=O)NNS(=O)(=O)c2ccccc2)cc1 [Compound I-192] |
| < 4.00 | < 4.00 | Cc1nn(CC(=O)NC2CCC2)c(C(=O)NNS(=O)(=O)C2CCCCC2)c1F [Compound I-501] |
